Publication PMC7874188, “Mucoromycotina Fungi Possess the Ability to Utilize Plant Sucrose as a Carbon Source: Evidence From Gongronella sp. w5” (Frontiers in Microbiology, 2021)

Test system: T1, GspInv
T1 construct: native, purified from w5 mycelia cytoplasm (High Q, Sephacryl S100); untagged
Assay: invertase hydrolysis kinetics, […] substrate
Type: biochemical, Gongronella sp. w5
Details: pH 5.0 citrate-Na2HPO4, optimal temperature; constant printed only as "substrate affinity"

- Km: 3.1 mM
Compound: OC[C@H]1O[C@@](CO)(O[C@H]2O[C@H](CO)[C@@H](O)[C@H](O)[C@H]2O)[C@@H](O)[C@@H]1O [sucrose]
